This passage reports MIC results from US6825225B2, “Bicyclic isoxazolinones as antibacterial agents” (Pharmacia & Upjohn Company, priority 2000, dated 2004).

For the assay, the system named is Methicillin-susceptible S. aureus UC®9213. The experiment in a line: Minimum inhibitory concentration (MIC) by agar dilution. The settings on record: Staphylococcus aureus, UC9213, lowest concentration that inhibits visible growth, read-out: Antibacterial Activity, Minimum Inhibitory Concentration, S.A. The format is cell-based. The source says: The isoxazolinone antibacterial agents of this invention have useful activity against a variety of organisms. The in vitro activity of compounds of this invention can be assessed by standard testing procedures such as the determination of minimum inhibitory concentration (MIC) by agar dilution as described in “Approved Standard. Methods for Dilution Anti microbial Susceptibility Tests for Bacteria That Grow Aerobically”, 3rd. ed., published 1993 by the National Committee for Clinical Laboratory Standards, Villanova, Pa., USA. S.A is Methicillin-susceptible S. aureus UC®9213. Minimum inhibitory concentration refers to lowest concentration of drug (μg/mL) that inhibits visible growth of the organism.
Background: Agar dilution tests growth on a series of plates holding different concentrations.

In brackets after ≈: the same amount, converted by molar mass.

Regarding `CC(=O)NCn1cc(-c2ccc3c(c2)CC(C)N3C=O)c(=O)o1` (centres unmarked) [Example 1, N-{[4-(N-formyl-2-methylindolinyl)-5-oxo-isoxazol-2-yl]methyl}acetamide], the MIC came to 2 mg/L (≈ 6.34 µM). Consider `CN[C@H](CC(C)C)C(=O)N[C@H]1C(=O)N[C@@H](CC(N)=O)C(=O)N[C@H]2C(=O)N[C@H]3C(=O)N[C@H](C(=O)N[C@H](C(=O)O)c4cc(O)cc(O)c4-c4cc3ccc4O)[C@H](O)c3ccc(c(Cl)c3)Oc3cc2cc(c3O[C@@H]2O[C@H](CO)[C@@H](O)[C@H](O)[C@H]2O[C@H]2C[C@](C)(N)[C@H](O)[C@H](C)O2)Oc2ccc(cc2Cl)[C@H]1O` [vancomycin], for which the MIC came out at 1 mg/L (≈ 0.69 µM).
